Consider 2 compounds from article PMC3642328, “Ataxia Telangiectasia-Mutated (ATM) Kinase Activity Is Regulated by ATP-driven Conformational Changes in the Mre11/Rad50/Nbs1 (MRN) Complex*^([image sbox.jpg])” (The Journal of Biological Chemistry, 2013).

Holding throughout (type): biochemical
For assay [1], the target named is T1, MRN (nucleotide site of Rad50) (Homo sapiens, UniProt Q92878).
T1 construct: full-length Mre11/Rad50/Nbs1 coexpressed in Sf21 insect cells, purified; with Double-strand break repair protein MRE11; Nibrin
T1 sequence (Q92878 1-1312): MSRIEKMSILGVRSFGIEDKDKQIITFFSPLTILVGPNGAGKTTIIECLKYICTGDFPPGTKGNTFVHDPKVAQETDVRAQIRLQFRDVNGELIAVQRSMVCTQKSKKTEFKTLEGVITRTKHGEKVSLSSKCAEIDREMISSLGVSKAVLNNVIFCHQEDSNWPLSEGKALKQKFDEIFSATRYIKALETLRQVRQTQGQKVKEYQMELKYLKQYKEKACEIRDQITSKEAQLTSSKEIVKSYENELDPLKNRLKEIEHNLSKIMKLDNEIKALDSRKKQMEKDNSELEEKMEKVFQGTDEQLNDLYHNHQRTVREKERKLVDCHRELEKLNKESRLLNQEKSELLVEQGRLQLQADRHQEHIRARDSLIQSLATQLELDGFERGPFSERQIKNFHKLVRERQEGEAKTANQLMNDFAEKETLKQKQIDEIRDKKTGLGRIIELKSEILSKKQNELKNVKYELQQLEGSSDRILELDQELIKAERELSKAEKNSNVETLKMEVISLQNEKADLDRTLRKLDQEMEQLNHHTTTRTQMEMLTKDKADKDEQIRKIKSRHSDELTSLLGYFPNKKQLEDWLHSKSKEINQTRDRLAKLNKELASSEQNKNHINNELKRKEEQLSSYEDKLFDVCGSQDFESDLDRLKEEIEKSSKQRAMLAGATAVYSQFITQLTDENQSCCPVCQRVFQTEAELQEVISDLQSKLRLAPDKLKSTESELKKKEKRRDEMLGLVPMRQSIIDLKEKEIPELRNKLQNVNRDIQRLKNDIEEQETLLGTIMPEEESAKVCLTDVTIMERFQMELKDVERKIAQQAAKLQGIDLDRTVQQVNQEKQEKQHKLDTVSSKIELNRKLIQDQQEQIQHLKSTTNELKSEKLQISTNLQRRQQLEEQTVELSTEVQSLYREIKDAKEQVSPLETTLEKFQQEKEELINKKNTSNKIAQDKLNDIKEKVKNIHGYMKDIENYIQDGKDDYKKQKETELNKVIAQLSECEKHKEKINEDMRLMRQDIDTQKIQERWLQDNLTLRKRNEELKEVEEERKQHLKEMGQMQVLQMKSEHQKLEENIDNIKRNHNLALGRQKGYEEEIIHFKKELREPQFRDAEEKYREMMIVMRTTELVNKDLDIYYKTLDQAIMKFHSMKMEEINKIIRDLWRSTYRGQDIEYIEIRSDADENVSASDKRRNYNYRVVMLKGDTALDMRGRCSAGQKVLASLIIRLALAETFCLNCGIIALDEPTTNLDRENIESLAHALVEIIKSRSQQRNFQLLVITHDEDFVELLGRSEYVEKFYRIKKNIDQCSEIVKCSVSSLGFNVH
T1 sequence (P49959 2-708 partner): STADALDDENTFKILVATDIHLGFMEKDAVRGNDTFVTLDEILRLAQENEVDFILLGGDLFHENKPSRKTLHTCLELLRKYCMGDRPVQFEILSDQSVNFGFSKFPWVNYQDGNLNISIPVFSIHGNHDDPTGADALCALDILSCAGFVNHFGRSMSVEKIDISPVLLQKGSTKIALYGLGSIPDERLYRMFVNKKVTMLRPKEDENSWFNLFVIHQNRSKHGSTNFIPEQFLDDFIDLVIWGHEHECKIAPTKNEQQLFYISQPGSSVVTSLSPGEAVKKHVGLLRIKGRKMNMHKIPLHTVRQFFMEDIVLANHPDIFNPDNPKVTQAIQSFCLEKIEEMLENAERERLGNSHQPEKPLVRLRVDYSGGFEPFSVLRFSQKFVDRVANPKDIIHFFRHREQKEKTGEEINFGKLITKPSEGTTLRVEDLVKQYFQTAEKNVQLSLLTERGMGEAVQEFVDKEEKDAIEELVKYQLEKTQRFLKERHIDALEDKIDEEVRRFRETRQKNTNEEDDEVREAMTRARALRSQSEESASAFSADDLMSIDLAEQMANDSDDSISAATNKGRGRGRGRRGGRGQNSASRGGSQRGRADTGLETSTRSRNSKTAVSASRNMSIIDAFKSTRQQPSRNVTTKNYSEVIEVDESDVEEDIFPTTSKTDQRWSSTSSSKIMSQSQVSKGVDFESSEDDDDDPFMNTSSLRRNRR
T1 sequence (O60934 1-754 partner): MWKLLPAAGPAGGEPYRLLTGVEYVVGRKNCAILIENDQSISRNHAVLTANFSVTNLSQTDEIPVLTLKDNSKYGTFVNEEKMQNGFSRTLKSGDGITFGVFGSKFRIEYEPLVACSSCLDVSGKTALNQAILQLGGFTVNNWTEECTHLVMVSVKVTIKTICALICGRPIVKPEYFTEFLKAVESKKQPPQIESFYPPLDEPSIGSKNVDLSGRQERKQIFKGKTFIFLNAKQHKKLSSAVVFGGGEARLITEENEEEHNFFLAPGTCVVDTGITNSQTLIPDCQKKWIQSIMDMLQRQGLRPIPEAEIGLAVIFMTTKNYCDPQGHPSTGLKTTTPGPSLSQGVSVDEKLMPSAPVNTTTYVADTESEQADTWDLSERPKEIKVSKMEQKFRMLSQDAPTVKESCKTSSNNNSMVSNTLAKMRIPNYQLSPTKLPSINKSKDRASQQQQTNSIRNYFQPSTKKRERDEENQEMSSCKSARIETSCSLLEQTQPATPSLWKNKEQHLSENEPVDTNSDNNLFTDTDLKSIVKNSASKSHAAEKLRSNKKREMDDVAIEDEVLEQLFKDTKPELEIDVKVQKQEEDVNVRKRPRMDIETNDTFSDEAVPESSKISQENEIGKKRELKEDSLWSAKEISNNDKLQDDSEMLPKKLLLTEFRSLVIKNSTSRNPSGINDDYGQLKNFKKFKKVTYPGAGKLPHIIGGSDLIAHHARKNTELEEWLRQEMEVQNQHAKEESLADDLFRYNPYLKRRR
The assay can be described thus: ATM kinase assay with analog-sensitive ATM Y2755A. Conditions: N6-furfuryl-ATP as ATM nucleotide; MRN/DNA; AMP-PNP supports MRN activation of ATM.

The target in a further assay is T2, ATM (Homo sapiens, UniProt Q13315, Y2755A).
T2 construct: full-length, Flag-tagged and HA-tagged, transiently expressed in human 293T cells, purified as dimer
As to the kind of experiment: kinase assay, GST-p53 Ser-15 phosphorylation, Western blot. Conditions: H2O2-activated ATM without MRN; analog 1 mM; pH 7.5, 5 mM Mg, 30 C. For orientation: Immunoblotting shows a protein as a band on a membrane.

Assay [2] has as its target T1, MRN (nucleotide site of Rad50). As to the kind of experiment: ATM kinase assay, inhibition of MRN/DNA-dependent activation. Conditions: wild-type ATM, ATP present; pH 7.5, 5 mM Mg, 30 C; site (Rad50 ATP pocket) inferred.

T2 sequence (Q13315 2-3056 Y2755A): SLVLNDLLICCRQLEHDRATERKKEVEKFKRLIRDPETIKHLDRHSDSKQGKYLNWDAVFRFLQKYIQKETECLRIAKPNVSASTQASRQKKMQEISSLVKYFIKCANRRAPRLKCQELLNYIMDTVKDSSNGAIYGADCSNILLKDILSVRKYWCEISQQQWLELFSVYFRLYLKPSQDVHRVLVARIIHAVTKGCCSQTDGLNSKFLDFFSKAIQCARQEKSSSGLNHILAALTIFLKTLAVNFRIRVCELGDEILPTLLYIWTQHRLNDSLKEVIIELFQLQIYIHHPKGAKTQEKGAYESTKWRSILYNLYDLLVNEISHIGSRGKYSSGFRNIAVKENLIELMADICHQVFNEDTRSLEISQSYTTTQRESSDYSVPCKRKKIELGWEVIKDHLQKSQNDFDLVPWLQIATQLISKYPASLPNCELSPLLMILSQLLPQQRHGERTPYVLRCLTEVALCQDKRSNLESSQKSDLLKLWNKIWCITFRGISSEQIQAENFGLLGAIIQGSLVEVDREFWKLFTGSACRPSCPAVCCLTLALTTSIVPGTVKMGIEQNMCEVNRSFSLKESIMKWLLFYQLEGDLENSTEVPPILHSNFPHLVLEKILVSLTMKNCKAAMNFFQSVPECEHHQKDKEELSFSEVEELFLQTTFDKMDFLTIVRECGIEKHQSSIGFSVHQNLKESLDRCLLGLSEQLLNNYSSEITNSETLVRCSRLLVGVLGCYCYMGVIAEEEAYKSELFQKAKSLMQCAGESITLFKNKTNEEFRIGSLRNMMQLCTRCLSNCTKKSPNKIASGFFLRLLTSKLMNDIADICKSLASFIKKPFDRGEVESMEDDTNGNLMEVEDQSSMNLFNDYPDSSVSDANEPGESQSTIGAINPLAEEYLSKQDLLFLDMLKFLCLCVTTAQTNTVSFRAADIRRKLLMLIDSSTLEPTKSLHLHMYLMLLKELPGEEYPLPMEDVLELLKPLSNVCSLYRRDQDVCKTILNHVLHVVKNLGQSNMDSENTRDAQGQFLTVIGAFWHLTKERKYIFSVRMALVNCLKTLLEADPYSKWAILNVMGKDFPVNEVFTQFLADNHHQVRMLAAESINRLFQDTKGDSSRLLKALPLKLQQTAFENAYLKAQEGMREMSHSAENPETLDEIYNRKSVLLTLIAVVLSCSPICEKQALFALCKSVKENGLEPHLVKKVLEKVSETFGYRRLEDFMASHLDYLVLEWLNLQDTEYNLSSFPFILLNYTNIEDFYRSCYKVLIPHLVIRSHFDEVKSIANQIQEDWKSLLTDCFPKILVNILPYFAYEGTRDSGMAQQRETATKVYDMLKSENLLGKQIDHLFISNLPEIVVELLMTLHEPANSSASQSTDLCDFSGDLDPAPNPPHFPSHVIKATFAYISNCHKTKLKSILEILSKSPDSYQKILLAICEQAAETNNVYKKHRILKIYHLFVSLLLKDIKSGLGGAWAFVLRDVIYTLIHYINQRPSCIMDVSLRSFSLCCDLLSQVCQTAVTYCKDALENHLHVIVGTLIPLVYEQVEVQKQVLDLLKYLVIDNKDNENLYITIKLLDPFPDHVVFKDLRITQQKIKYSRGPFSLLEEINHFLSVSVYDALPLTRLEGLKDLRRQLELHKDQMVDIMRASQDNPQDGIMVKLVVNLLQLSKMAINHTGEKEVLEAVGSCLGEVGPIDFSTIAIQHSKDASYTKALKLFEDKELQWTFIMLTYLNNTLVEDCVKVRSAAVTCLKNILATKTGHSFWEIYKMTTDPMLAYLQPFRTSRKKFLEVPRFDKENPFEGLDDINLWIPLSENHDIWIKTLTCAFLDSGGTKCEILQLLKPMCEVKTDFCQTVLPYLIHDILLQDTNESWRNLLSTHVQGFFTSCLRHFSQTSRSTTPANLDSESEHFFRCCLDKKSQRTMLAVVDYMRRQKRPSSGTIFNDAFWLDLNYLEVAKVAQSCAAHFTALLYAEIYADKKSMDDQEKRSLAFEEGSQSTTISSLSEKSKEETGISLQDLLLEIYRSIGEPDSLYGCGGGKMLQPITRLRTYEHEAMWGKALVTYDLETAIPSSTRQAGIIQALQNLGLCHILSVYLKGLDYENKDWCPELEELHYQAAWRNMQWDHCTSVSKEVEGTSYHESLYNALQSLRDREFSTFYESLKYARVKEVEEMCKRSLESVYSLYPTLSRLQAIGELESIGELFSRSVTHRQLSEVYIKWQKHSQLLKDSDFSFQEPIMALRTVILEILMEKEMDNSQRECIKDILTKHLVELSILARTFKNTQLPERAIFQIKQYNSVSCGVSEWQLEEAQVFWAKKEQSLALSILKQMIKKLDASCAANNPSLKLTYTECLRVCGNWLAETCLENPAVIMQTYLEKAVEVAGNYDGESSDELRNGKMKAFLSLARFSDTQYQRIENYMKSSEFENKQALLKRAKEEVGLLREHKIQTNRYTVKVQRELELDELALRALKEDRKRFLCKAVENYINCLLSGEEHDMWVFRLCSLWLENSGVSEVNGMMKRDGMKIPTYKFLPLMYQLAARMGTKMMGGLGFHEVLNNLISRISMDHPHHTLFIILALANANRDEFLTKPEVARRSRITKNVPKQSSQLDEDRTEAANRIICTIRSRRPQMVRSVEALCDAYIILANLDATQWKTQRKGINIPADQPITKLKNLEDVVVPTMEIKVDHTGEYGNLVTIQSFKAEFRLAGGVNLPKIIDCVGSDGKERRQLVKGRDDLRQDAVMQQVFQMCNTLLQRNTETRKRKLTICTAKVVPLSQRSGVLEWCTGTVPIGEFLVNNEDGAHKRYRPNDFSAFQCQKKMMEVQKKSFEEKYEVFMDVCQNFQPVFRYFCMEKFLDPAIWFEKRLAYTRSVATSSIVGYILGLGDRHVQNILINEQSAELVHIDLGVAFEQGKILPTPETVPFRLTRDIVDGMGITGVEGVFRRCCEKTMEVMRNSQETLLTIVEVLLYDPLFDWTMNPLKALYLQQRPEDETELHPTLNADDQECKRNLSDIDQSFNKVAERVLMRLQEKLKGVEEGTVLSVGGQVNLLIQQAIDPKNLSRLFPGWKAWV

Turning to `Nc1ncnc2c1ncn2[C@@H]1O[C@H](COP(=O)(O)OP(=O)(O)NP(=O)(O)O)[C@@H](O)[C@H]1O` [AMP-PNP, adenosine 5′-(β,γ-imino)triphosphate], the “ATM kinase assay with analog-sensitive ATM Y2755A” value in assay [1] was “Y2755A ATM phosphorylated p53 in the presence of MRN/DNA, N6-(furfuryl)-ATP, and AMP-PNP”. Take `CCCC(C)Nc1ncnc2c1ncn2[C@@H]1O[C@H](COP(=O)(O)OP(=O)(O)OP(=O)(O)O)[C@@H](O)[C@H]1O` (stereo partly drawn) [N6-(1-methylbutyl)-ATP, N6-(1-methylbutyl)adenosine-5′-O-triphosphate]: at ATM, the “kinase assay, GST-p53 Ser-15 phosphorylation, Western blot” value is reported as “N6-(1-methylbutyl)-ATP was utilized by the Y2755A mutant ATM”. In addition, in assay [2], the “ATM kinase assay, inhibition of MRN/DNA-dependent activation” value is “N6-(1-methylbutyl)-ATP inhibited the activation of wild-type ATM by MRN/DNA”.
